Measurements reported in PMC11191317, “PNSC928, a plant-derived compound, specifically disrupts CtBP2-p300 interaction and reduces inflammation in mice with acute respiratory distress syndrome” (Biology Direct, 2024).

Tested on: ARDS mice
Assay: LPS-induced ARDS mouse model
Type: in vivo
Experimental: All animal experiments were performed following a protocol reviewed and approved by the Institutional Animal Care and Use Committee at Jiangxi Provincial People’s Hospital. We procured C57BL/6 mice from Charles River Laboratories (Beijing, China) and maintained them in specific pathogen-free (SPF) conditions, with a 12-hour light/dark cycle and free access to food and sterile water. We established the ARDS mouse model by administering LPS via tracheal intubation, following an established protocol. Briefly, mice (eight-week-old, half male and half female, 22–25 g) were anesthetized using isoflurane inhalation and randomly classified into Control and ARDS groups. Control mice received 50 µL sterile saline, while ARDS mice were given 25 µg LPS (Sigma-Aldrich, Shanghai, China; #LPS25) in 50 µL sterile saline. Mice were immediately positioned upright and rotated to evenly distribute the LPS within the lungs.
To assess the impact of CtBP2, p300, NF-κB inhibitors, and PNSC928 on ARDS progression, mice were further categorized post-4 h LPS administration into different groups: ARDS, ARDS + MTOB (700 mg/kg; MedChemExpress; Monmouth Junction, NJ; #HY-135,046), ARDS + NSC95397 (1.5 mg/kg; MedChemExpress; #HY-108,543), ARDS + C646 (10 mg/kg; MedChemExpress; #HY-13,823), ARDS + A-485 (50 mg/kg; MedChemExpress; #HY-107,455), ARDS + TPCA1 (10 mg/kg; MedChemExpress; #HY-10,074), ARDS + BOT64 (50 mg/kg; MedChemExpress; #HY-136,741), and ARDS + PNSC928 (20 mg/kg). Mice received these compounds daily for two days. Body weight and temperature were recorded every 24 h. At 48 h post-LPS challenge, mice were sacrificed, and blood samples and lung tissues were harvested.
To collect bronchoalveolar lavage fluid (BALF), the Control, ARDS, and ARDS + PNSC928 groups of mice (n = 10 for each group) were anesthetized with isoflurane inhalation in accordance with institutional guidelines. Mice were placed on their backs, and a small incision was made at the base of the neck to expose the trachea. A flexible catheter was inserted into the trachea and secured with a suture. A syringe filled with sterile phosphate-buffered saline (PBS) (Thermo Fisher, Shanghai, China; #10,010,023) was attached to the catheter, and 1.5 mL of PBS was gently instilled into the right lungs. After allowing the fluid to sit for 10 s, it was aspirated back into the syringe. This process was repeated three times to ensure thorough lavage. The collected BALF was kept on ice in a sterile tube, then centrifuged at 1,000 × g for 10 min at 4 °C to pellet the cells. The supernatant was stored at -80 °C for further analyses.
Whole blood samples were allowed to stand undisturbed at room temperature for 15 min before being centrifuged at 1,000 × g for 10 min. The supernatant serum and BALF were used to measure concentrations of IL-1β, IL-6, IL-15, IL-18, and TNF-α with specific enzyme-linked immunosorbent assay (ELISA) kits as per manufacturer guidelines. The ELISA kits used were: IL-1β (Thermo Fisher; #KMC0011), IL-6 (Thermo Fisher; #KMC0061), IL-15 (Abcam; Shanghai, China; #ab275898), IL-18 (Thermo Fisher; #BMS618-3), and TNF-α (Thermo Fisher; #BMS607-3). Total BALF protein levels were measured using the BCA Protein Assay Kit (Abcam; #ab102536) according to the manufacturer’s protocol.
MPO activity was determined according to a previously established protocol. Briefly, lung tissues (50 mg per mouse) were washed with ice-cold PBS to remove residual blood, then homogenized in a buffer containing 2.5 g of hexadecyltrimethylammonium bromide (Sigma-Aldrich; # H5882) dissolved in 500 mL of PBS. The tissue homogenate was kept on ice for 30 min before centrifugation at 16,000 × g for 10 min at 4 °C. The supernatant was used to measure MPO activity with the Myeloperoxidase Activity Assay Kit (Abcam; #ab105136) according to the manufacturer’s method.
The right upper lobe of the lung was excised, rinsed with PBS, blotted dry, and weighed to determine the “wet” weight. […]

[1] = ARDS mice, 25 μg LPS + 20 mg/kg PNSC928

Q: What does the source list for `CC(=CCCC1=CCC(C2COC(=O)C2)OC1O)CCC1=C(C)CCCC1(C)C` (stereo not shown) [PNSC928]?
A: Lung wet-to-dry weight ratio [1]: significant reduction; MPO activity in lung tissues [1]: significant reduction; Survival rate of ARDS mice [1]: enhancing the survival rate; Total BALF protein levels [1]: significant reduction; Lung expressions of IL-1B, IL-6, IL-15, IL-18, TNFA, and IFNG (RT-qPCR) (ARDS mice, PNSC928 20 mg/kg): significantly reduced; Lung expressions of S100A8, ICAM1, SPP1, FBN1, and SPSB1 (RT-qPCR) (ARDS mice, PNSC928 20 mg/kg): without notably altering; Serum and BALF concentrations of pro-inflammatory cytokines (ELISA) (ARDS mice, PNSC928 20 mg/kg from 4 h post-LPS, daily for two days): significantly abated; Serum and BALF pro-inflammatory cytokine levels in comparison to control mice (ARDS mice, PNSC928 20 mg/kg from 4 h post-LPS, elevated vs control mice): 1.3–1.5 fold; Decrease in body weights and respiratory distress (pO2) caused by LPS (ARDS mice, PNSC928 20 mg/kg, measured at 0, 1, and 2 days): alleviated; Lung damage by histological examination (H&E, histological scores) (LPS-challenged mice, PNSC928 20 mg/kg): recovered lung damage
